These results are taken from patent US7919457B2, “Thrombin peptide derivative dimers” (Orthologic Corp., priority 2002, dated 2011).

One test concerns thrombin receptors. The test is described as follows: Peptide competition for [125I]-alpha-thrombin binding to ME cells. The settings on record: for fold higher concentration required for 30% inhibition than p508-530: [125I]-alpha-thrombin binding; for Conc. at Maximal % Inhibition / Concentration Required for 30% Inhibition / Maximal % Inhibition: [125I]-alpha-thrombin binding to ME cells; for Maximal % Inhibition: at the conc. printed below the value. The source says:
Thrombin peptide derivatives are believed to activate cells by binding to a high-affinity cell-surface thrombin receptor known as the non-proteolytically-activated thrombin receptor (hereinafter “NPAR”) (R. Horvat, et. al., J. Cell Sci. 108, 1155-1164, 1995). Compounds which stimulate NPAR are said to be thrombin receptor agonists. NPAR activation can be assayed based on the ability of molecules to stimulate cell proliferation when added to fibroblasts in the presence of submitogenic concentrations of thrombin or molecules that activate protein kinase C or compete with ^125I-thrombin for high affinity binding to thrombin receptors, as disclosed in U.S. Pat. Nos. 5,352,664 and 5,500,412 and in Glenn et al., J. Peptide Research 1:65 (1988).
To further identify regions of thrombin involved in high-affinity binding and generation of mitogenic signals, two peptides representing specific domains within p508-530 were tested. The first peptide represented residues 519 to 530 of the B-chain region of human prothrombin, a region of thrombin that is highly conserved among serine proteases. The second peptide represented residues 517 to 520 of prothrombin, a region of thrombin homologous to the fibronectin cell binding domain.
Both of these peptides were able to compete for 30% to 50% of the binding of [^125I]-alpha-thrombin to ME cells, but both required higher concentrations than was required with the initial peptide p508-530 (Table 1). For example, 30% inhibition of [^125I]-alpha-thrombin binding required 33- to 50-fold higher concentrations of p519-530 and p517-520 than p508-530, respectively. Thus, both of these peptides appear to interact with thrombin receptors, but at a lower affinity than p508-530. Because p517-520 is homologous to the fibronectin cell binding domain, a peptide having the sequence Arg-Gly-Ala-Ser (SEQ ID NO:13; the sequence of the fibronectin specific peptide) was also tested for its ability to compete for [^125I]-alpha-thrombin binding. […] Thus, the receptor for alpha-thrombin is not the same membrane protein that specifically interacts with fibronectin and causes the apparent growth promoting action of fibronectin.

For a further test, the system named is NIL cells. The settings on record: increasing concentrations, quiescent NIL cells, 2 and 4 nM alpha-thrombin; FIG. 6 of U.S. Pat. No. 5,500,412; cited from earlier work.

In the case of “RGDA (Thrombin peptide fragment) [p517-520]”, in the test on thrombin receptors, the “fold higher concentration required for 30% inhibition than p508-530” value was found to be 50 fold, the “Conc. at Maximal % Inhibition” value is on record as “(2.7 μM)”, the “Concentration Required for 30% Inhibition” value is 300 nM and the “Maximal % Inhibition” value is given as 50%. In addition, the “effect on DNA synthesis” value with NIL cells was “inhibited DNA synthesis”.

For “DACEGDSGGPFV (Thrombin peptide derivative) [p519-530]”, in the test on thrombin receptors, the “fold higher concentration required for 30% inhibition than p508-530” value was 33 fold, the “Conc. at Maximal % Inhibition” value is “(800 nM)”, the “Concentration Required for 30% Inhibition” value turned out to be 200 nM and the “Maximal % Inhibition” value was 51%. The “effect on DNA synthesis” value in the test with NIL cells was “enhanced DNA synthesis over a range of concentrations”.

Turning to “Arg-Gly-Ala-Ser (RGAS; Fibronectin fragment)”, in the test with thrombin receptors (at a concentration of 1.3 μM), the “competition with [125I]-alpha-thrombin for binding” value is “did not compete”.
